Experimental data from PubChem BioAssay AID248 (DTP/NCI, 2004).
Where “and” joins values, the source holds several entries; their conditions need not be identical. Equal entries are not always repeated. Toxic doses and inconclusive results are not listed. Cut-off read from the data, not from the text of the source: active = T/C of 150% or more; inactive = T/C below 125%.

Tested on: L1210 leukemia ip in BDF1 mice, survival T/C
Assay: NCI In Vivo Anticancer Drug Screen. Data for tumor model L1210 Leukemia (intraperitoneal) in B6D2F1 (BDF1) mice
Details: endpoint: mean survival time, higher = longer survival
Procedure, shortened: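 Ratio derived from survival: compound-dosed mice over vehicle-dosed mice, all bearing a transplantable tumor.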

[1] = dose: 100.0 mg/kg/injection, schedule: Q01DX001 (ip), vehicle: saline
[2] = dose: 200.0 mg/kg/injection, schedule: Q01DX001 (ip), vehicle: saline
[3] = dose: 400.0 mg/kg/injection, schedule: Q01DX001 (ip), vehicle: saline
[4] = dose: 50.0 mg/kg/injection, schedule: Q04DX003 (ip), vehicle: saline
[5] = dose: 100.0 mg/kg/injection, schedule: Q04DX003 (ip), vehicle: saline
[6] = dose: 100.0 mg/kg/injection, schedule: Q04DX002 (ip), vehicle: Klucel (hydroxypropylcellulose) (HPC)
[7] = dose: 200.0 mg/kg/injection, schedule: Q04DX002 (ip), vehicle: Klucel (hydroxypropylcellulose) (HPC)
[8] = dose: 400.0 mg/kg/injection, schedule: Q04DX002 (ip), vehicle: Klucel (hydroxypropylcellulose) (HPC)
[9] = dose: 100.0 mg/kg/injection, schedule: Q01DX001 (ip), vehicle: carboxymethylcellulose (CMC)
[10] = dose: 200.0 mg/kg/injection, schedule: Q01DX001 (ip), vehicle: carboxymethylcellulose (CMC)
[11] = dose: 400.0 mg/kg/injection, schedule: Q01DX001 (ip), vehicle: carboxymethylcellulose (CMC)
[12] = dose: 50.0 mg/kg/injection, schedule: Q01DX001 (ip), vehicle: carboxymethylcellulose (CMC)

Measured: T/C

CCCCNC(=O)CSc1cc(Cl)c(Cl)cc1Cl
inactive: dose: 100.0 mg/kg/injection, schedule: Q01DX001 (ip), vehicle: saline with Tween-80 91 % of control | dose: 200.0 mg/kg/injection, schedule: Q01DX001 (ip), vehicle: saline with Tween-80 91 % of control | dose: 400.0 mg/kg/injection, schedule: Q01DX001 (ip), vehicle: saline with Tween-80 95 % of control

Cc1ccnc(NS(=O)(=O)c2ccc(N=Nc3c(N)nc(N)nc3N)cc2)n1
inactive: [1] 92 % of control | [2] 97 % of control | [3] 121 % of control

Cc1cc(C(O)c2ccccn2)c2ccccc2n1 (stereo not drawn)
inactive: dose: 50.0 mg/kg/injection, schedule: Q01DX009 (ip), vehicle: Klucel (hydroxypropylcellulose) (HPC) 102 % of control | dose: 100.0 mg/kg/injection, schedule: Q01DX001 (ip), vehicle: Klucel (hydroxypropylcellulose) (HPC) 106 % of control | dose: 100.0 mg/kg/injection, schedule: Q01DX009 (ip), vehicle: Klucel (hydroxypropylcellulose) (HPC) 96 % of control | dose: 200.0 mg/kg/injection, schedule: Q01DX001 (ip), vehicle: Klucel (hydroxypropylcellulose) (HPC) 96 % of control

O=C(Nc1c(Oc2ccc(Cl)cc2)ccc(Cl)c1S(=O)(=O)O)Nc1c(Oc2ccc(Cl)c(Cl)c2)ccc(Cl)c1S(=O)(=O)O
inactive: [4] 97 % of control | [5] 90 % of control | dose: 200.0 mg/kg/injection, schedule: Q04DX003 (ip), vehicle: saline 95 % of control

CCCNC(=O)Nc1ccc(OCC)cc1
inactive: [6] 105 % of control | [7] 115 % of control | [8] 105 % of control

O=C1c2ccccc2-c2c(N=Cc3ccc4c(c3)OCO4)c(Br)cc(Br)c21
inactive: dose: 100.0 mg/kg/injection, schedule: Q01DX001 (ip), vehicle: other 93 % of control | dose: 200.0 mg/kg/injection, schedule: Q01DX001 (ip), vehicle: other 98 % of control | dose: 400.0 mg/kg/injection, schedule: Q01DX001 (ip), vehicle: other 95 % of control

C=[CH][Pb]([CH]=C)([O]C(=O)C(C)C)[O]C(=O)C(C)C
inactive: dose: 5.0 mg/kg/injection, schedule: Q04DX003 (ip), vehicle: saline 104 % of control | dose: 10.0 mg/kg/injection, schedule: Q04DX003 (ip), vehicle: saline 106 % of control | dose: 20.0 mg/kg/injection, schedule: Q04DX003 (ip), vehicle: saline 101 % of control

CC(=O)Nc1c(I)cc2c(c1I)Cc1cc([N+](=O)[O-])ccc1-2
inactive: [9] 98 % of control | [10] 104 % of control | [11] 93 % of control

CCCCSC1CCCC1
inactive: dose: 50.0 mg/kg/injection, schedule: Q01DX009 (ip), vehicle: acetone 98 % of control | [1] 89 % of control | dose: 100.0 mg/kg/injection, schedule: Q01DX009 (ip), vehicle: acetone 110 % of control | [2] 92 % of control

Cc1cc2c3ccccc3c3ccccc3c2nn1
inactive: [1] 103 % of control | [2] 101 % of control | [3] 100 % of control

COc1ccccc1N=Nc1c(O)[nH]c2ccccc12
inactive: [1] 96 % of control | [2] 96 % of control | [3] 102 % of control

COC(=O)NC(CI)c1ccccc1 (stereo not drawn)
inactive: dose: 75.0 mg/kg/injection, schedule: Q01DX001 (ip), vehicle: saline 110 % of control | dose: 150.0 mg/kg/injection, schedule: Q01DX001 (ip), vehicle: saline 110 % of control | dose: 300.0 mg/kg/injection, schedule: Q01DX001 (ip), vehicle: saline 100 % of control

OCC[CH2][Pb]([c]1ccccc1)([c]1ccccc1)[c]1ccccc1
inactive: dose: 3.12 mg/kg/injection, schedule: Q04DX003 (ip), vehicle: Klucel (hydroxypropylcellulose) (HPC) 94 % of control | dose: 6.25 mg/kg/injection, schedule: Q04DX003 (ip), vehicle: Klucel (hydroxypropylcellulose) (HPC) 97 % of control

O=C1OC(c2ccccc2)=N/C1=C\c1ccccc1
inactive: [12] 93 % of control | [9] 95 % of control | dose: 100.0 mg/kg/injection, schedule: Q04DX002 (ip), vehicle: gum acacia 91 % of control | [10] 101 % of control | dose: 200.0 mg/kg/injection, schedule: Q04DX002 (ip), vehicle: gum acacia 109 % of control | [11] 90 % of control | dose: 400.0 mg/kg/injection, schedule: Q04DX002 (ip), vehicle: gum acacia 98 % of control

CC(=O)OC1CCC2(C)C(=CCC3C2CCC2(C)C3CC3C(c4ccccc4Br)=NN(c4ccccc4)C32C#N)C1 (stereo not drawn)
inactive: dose: 3.0 mg/kg/injection, schedule: Q04DX002 (ip), vehicle: Klucel (hydroxypropylcellulose) (HPC) 106 % of control | dose: 6.0 mg/kg/injection, schedule: Q04DX002 (ip), vehicle: Klucel (hydroxypropylcellulose) (HPC) 94 % of control and 107 % of control | dose: 12.0 mg/kg/injection, schedule: Q04DX002 (ip), vehicle: Klucel (hydroxypropylcellulose) (HPC) 100 % of control | dose: 25.0 mg/kg/injection, schedule: Q04DX002 (ip), vehicle: Klucel (hydroxypropylcellulose) (HPC) 104 % of control | dose: 50.0 mg/kg/injection, schedule: Q04DX002 (ip), vehicle: Klucel (hydroxypropylcellulose) (HPC) 114 % of control

CN(C)CCC(=O)c1cccc([N+](=O)[O-])c1
inactive: dose: 75.0 mg/kg/injection, schedule: Q01DX001 (ip), vehicle: other 102 % of control

CCCCCCCCCc1ccc(OC(C)OCCOCCOCC)cc1 (stereo not drawn)
inactive: dose: 100.0 mg/kg/injection, schedule: Q04DX002 (ip), vehicle: saline 97 % of control | dose: 200.0 mg/kg/injection, schedule: Q04DX002 (ip), vehicle: saline 100 % of control | dose: 400.0 mg/kg/injection, schedule: Q04DX002 (ip), vehicle: saline 105 % of control

O=[N+]([O-])c1ccc(CSCc2ccccc2)cc1
inactive: [12] 102 % of control | [9] 102 % of control | [10] 109 % of control | [11] 98 % of control

COC(OC)c1[nH]c(=S)[nH]c(=O)c1CCc1ccccc1
inactive: [6] 97 % of control | [7] 97 % of control | [8] 86 % of control

O=C[N]([Hg][Cl])c1ccccc1
inactive: dose: 0.39 mg/kg/injection, schedule: Q01DX009 (ip), vehicle: saline with Tween-80 102 % of control | dose: 0.78 mg/kg/injection, schedule: Q01DX009 (ip), vehicle: saline with Tween-80 102 % of control | dose: 1.56 mg/kg/injection, schedule: Q01DX009 (ip), vehicle: saline with Tween-80 87 % of control | dose: 1.56 mg/kg/injection, schedule: Q01DX009 (ip), vehicle: saline 94 % of control

COc1cc2c(cc1OCc1ccccc1)C=CN(C(=O)c1ccccc1)C2C#N (stereo not drawn)
inactive: dose: 25.0 mg/kg/injection, schedule: Q01DX009 (ip), vehicle: saline 100 % of control | dose: 50.0 mg/kg/injection, schedule: Q01DX009 (ip), vehicle: saline 94 % of control | dose: 100.0 mg/kg/injection, schedule: Q01DX009 (ip), vehicle: saline 94 % of control | dose: 200.0 mg/kg/injection, schedule: Q01DX009 (ip), vehicle: saline 93 % of control | dose: 400.0 mg/kg/injection, schedule: Q01DX009 (ip), vehicle: saline 98 % of control

CCN(CC)CCOc1ccc(/C=C2\CCc3ccccc3C2=O)cc1
inactive: dose: 25.0 mg/kg/injection, schedule: Q01DX007 (ip), vehicle: saline 104 % of control | dose: 50.0 mg/kg/injection, schedule: Q01DX007 (ip), vehicle: saline 102 % of control | [4] 95 % of control | dose: 100.0 mg/kg/injection, schedule: Q01DX007 (ip), vehicle: saline 96 % of control | [5] 95 % of control

O=C1CCCCCC1c1ccccc1 (stereo not drawn)
inactive: dose: 100.0 mg/kg/injection, schedule: Q04DX003 (ip), vehicle: saline with Tween-80 98 % of control | dose: 200.0 mg/kg/injection, schedule: Q04DX003 (ip), vehicle: saline with Tween-80 96 % of control | dose: 400.0 mg/kg/injection, schedule: Q04DX003 (ip), vehicle: saline with Tween-80 106 % of control

Brc1ncnc2nc[nH]c12
inactive: dose: 62.5 mg/kg/injection, schedule: Q01DX Z (ip), vehicle: carboxymethylcellulose (CMC) 97 % of control | dose: 75.0 mg/kg/injection, schedule: Q01DX Z (ip), vehicle: carboxymethylcellulose (CMC) 120 % of control | dose: 100.0 mg/kg/injection, schedule: Q01DX Z (ip), vehicle: methylcellulose (MC) 111 % of control | dose: 125.0 mg/kg/injection, schedule: Q01DX Z (ip), vehicle: carboxymethylcellulose (CMC) 121 % of control | dose: 200.0 mg/kg/injection, schedule: Q01DX Z (ip), vehicle: methylcellulose (MC) 120 % of control

CN(C)CCSC(CO)c1ccccc1 (stereo not drawn)
inactive: [9] 96 % of control | [10] 89 % of control | [11] 94 % of control
